Test results: US11084830B2, “Five-membered non aromatic ring-pyrimidine HIV-1 reverse transcriptase inhibitor, preparation method therefor, and uses thereof” (priority 2018, dated 2021)
Read-outs that look alike come from different tables or passages of the source.

What was measured:
mock-infected MT-4 cells = experiment: Cytotoxicity in mock-infected MT-4 cells, MTT method; assay type: cell-based; details: human, 5 days
Experimental: (§1) The MTT method was described briefly as follows: stock solutions (10×final concentration) of test compounds were added in 25 μL volumes to two series of triplicate wells in order to allow simultaneous evaluation of the effects on mock- and HIV-infected cells. Using a Biomek 3000 robot (Beckman Instruments, Fullerton, Calif.), serial five-fold dilutions of the test compounds (final 200 μL volume per well) were made directly in flat-bottomed 96-well microtiter trays, including untreated control HIV-1 and mock-infected cell samples for each sample. HIV-1 (IIIB) and mutant HIV-1 strains stock (50 μL at 100-300 CCID50) or culture medium was added to either the infected or mock-infected wells of the microtiter tray. Mock-infected cells were used to evaluate the effect of test compounds on uninfected cells to assess cytotoxicity. Exponentially growing MT-4 cells were centrifuged for 5 min at 1000 rpm and the supernatant was discarded. The MT-4 cells were resuspended at 6×10^5 cells/mL, and 50 μL aliquots were transferred to the microtiter tray wells. At five days after infection, the viability of mock- and HIV-infected cells was determined spectrophotometrically by means of MTT assay.
(§2) The MTT assay is based on the reduction of yellow-colored MTT (Acros Organics, Geel, Belgium) by mitochondrial dehydrogenase of metabolically active cells to form a blue-purple formazan that can be measured spectrophotometrically. The absorbances were read in an eight-channel computer-controlled photometer, at the wavelengths of 540 and 690 nm. All data were calculated using the median optical density (OD) value of three wells.

[1] = test system: NNRTI-resistant double-mutant strain K103N+Y181C (RES056); experiment: microbe, parasite or virus in culture; assay type: cell-based, HIV-1; details: for EC50: Human immunodeficiency virus 1, MT4, read-out: EC50 RES056; for SI RES056: selectivity index, ratio of CC50/EC50, strain RES056
Experimental: (§3) Antiviral potency was evaluated in MT-4 cell cultures infected with WT HIV-1 strain (IllB) as well as cells infected with a panel of NNRTI-resistant double-mutant strain K103N+Y181C (RES056).
(§4) Selected compounds were screened for inhibitory activity against HIV-1 using MTT method as describe previously by Christophe. Pannecouque et al. Nat. Protoc. […] And in vitro anti-HIV activity of compounds were supported by Rega Institute for Medical Research. The MTT assay is based on the reduction of the yellow colored 3-(4,5-dimethylthiazol-2-yl)-2,5-diphenyltetrazolium bromide (MTT) by mitochondrial dehydrogenases of metabolically active cells to a blue formazan which can be measured spectrophotometrically. Tested optical density served as an indicator for live cells, and survival rate can be concluded by testing the optical density of 540 nm and 690 nm. MT-4 cells infected with HIV-1 can only survive for 5 to 7 days without any treatment, but when HIV-1 inhibitors were added, they can protect MT-4 cell from cytopathic. Serial solution of compounds was added to MT-4 cells after infected with HIV-1, MTT method was used to detect the survival rate after culture for 5 to 7 days.
(§5) (1) MT-4 cells infected with HIV-1 viral strains (IIIB, Y181C/K103N) were provided by Rega Institute for Medical Research, Katholieke Universiteit Leuven, Belgium.
(§6) (3) Preparation of compounds: Stock solutions (10×final concentration) of test compounds is diluted with double distilled H2O for 5 folds and 5 concentrations of one compound are prepared.
(§7) (5) Test method (MTT method): Serial five-fold dilutions of test compounds were added to cultured MT-4 cells infected with HIV-1, after 5 to 7 days, MTT was added and cultured for a few hours.
as §1, with “HIV-1 (IIIB) and mutant HIV-1 strains stock (50 μL at 100-300 CCID50) or culture medium was added to either the infected or mock-infected wells of the microtiter tray.” left out, “The MT-4 cells were resuspended at 6×10^5 cells/mL, and 50 μL aliquots were transferred to the microtiter tray wells.” left out
as §2

WT HIV-1 strain (IIIB) = experiment: Anti-HIV-1 activity in MT-4 cells, MTT method, wild-type strain IIIB; assay type: cell-based; details: for SI IIIB: selectivity index, ratio of CC50/EC50, strain IIIB; for EC50: Human immunodeficiency virus 1, IIIB, MT4, read-out: EC50 IIIB
Experimental: as §3, §4, §5, §6, §7
as §1, with “HIV-1 (IIIB) and mutant HIV-1 strains stock (50 μL at 100-300 CCID50) or culture medium was added to either the infected or mock-infected wells of the microtiter tray.” left out, “The MT-4 cells were resuspended at 6×10^5 cells/mL, and 50 μL aliquots were transferred to the microtiter tray wells.” left out
as §2

[2] = Cytotoxicity in mock-infected MT-4 cells, MTT method; assay type: cell-based; details: human
Experimental: as §1, §2

[3] = concentration reducing viability of mock-infected MT-4 cell cultures by 50%, MTT method, read-out: CC50

SMILES: Cc1cc(C#N)cc(C)c1Oc1nc(NC2CCN(Cc3ccc(S(N)(=O)=O)cc3)CC2)nc2c1SCC2 [Compound A1, 4-((4-((4-(4-cyano-2,6-dimethylphenoxy)-6,7-dihydrothieno[3,2-d]pyrimidin-2-yl)amino)piperidin-1-yl)methyl)benzenesulfonamide]
- CC50 (mock-infected MT-4 cells): 19900 ± 10100 nM
- EC50 [1]: 28.8 ± 1.2 nM
- SI RES056 [1]: 692
- SI IIIB (WT HIV-1 strain (IIIB)): 4584

SMILES: Cc1cc(C#N)cc(C)c1Oc1nc(NC2CCN(Cc3ccc(C(N)=O)cc3)CC2)nc2c1SCC2 [Compound A2, 4-((4-((4-(4-cyano-2,6-dimethylphenoxy)-6,7-dihydrothieno[3,2-d]pyrimidin-2-yl)amino)piperidin-1-yl)methyl)benzamide]
- CC50 (mock-infected MT-4 cells): 165000 ± 36900 nM
- EC50 [1]: 43.6 ± 5 nM
- SI RES056 [1]: 3804
- SI IIIB (WT HIV-1 strain (IIIB)): 34162

SMILES: Cc1cc(C#N)cc(C)c1Oc1nc(NC2CCN(Cc3ccc(S(C)(=O)=O)cc3)CC2)nc2c1SCC2 [Compound A3, 3,5-dimethyl-4-((2-((1-(4-(methylsulfonyl)benzyl)piperidin-4-yl)amino)-6,7-dihydrothieno[3,2-d]pyrimidin-4-yl)oxy)benzonitrile]
- CC50 (mock-infected MT-4 cells): 11900 ± 5570 nM
- EC50 [1]: 46.6 ± 7.8 nM
- SI RES056 [1]: 257
- SI IIIB (WT HIV-1 strain (IIIB)): 2025

SMILES: Cc1cc(C#N)cc(C)c1Oc1nc(NC2CCN(Cc3ccncc3)CC2)nc2c1SCC2 [Compound A4, 3,5-dimethyl-4-((2-((1-(pyridin-4-ylmethyl)piperidin-4-yl)amino)-6,7-dihydrothieno[3,2-d]pyrimidin-4-yl)oxy)benzonitrile]
- CC50 at 5 days ([2]; CC50): ≥ 106000 nM
- EC50 [1]: 46 ± 1.9 nM
- SI RES056 [1]: ≥2305
- SI IIIB (WT HIV-1 strain (IIIB)): ≥40104

SMILES: Cc1cc(C#N)cc(C)c1Oc1nc(NC2CCN(Cc3ccc([N+](=O)[O-])cc3)CC2)nc2c1SCC2 [Compound A5, 3,5-dimethyl-4-((2-((1-(4-nitrobenzyl)piperidin-4-yl)amino)-6,7-dihydrothieno[3,2-d]pyrimidin-4-yl)oxy)benzonitrile]
- CC50 (mock-infected MT-4 cells): 6180 ± 1740 nM
- EC50 [1]: 495 ± 1.3 nM
- SI RES056 [1]: 12
- SI IIIB (WT HIV-1 strain (IIIB)): 770

SMILES: Cc1cc(C#N)cc(C)c1Oc1nc(NC2CCN(Cc3cccc(C(N)=O)c3)CC2)nc2c1SCC2 [Compound A6, 3-((4-((4-(4-cyano-2,6-dimethylphenoxy)-6,7-dihydrothieno[3,2-d]pyrimidin-2-yl)amino)piperidin-1-yl)methyl)benzamide]
- CC50 at 5 days ([2]; CC50): ≥ 223000 nM
- EC50 [1]: 629 nM
- SI RES056 [1]: ≥355
- SI IIIB (WT HIV-1 strain (IIIB)): ≥8048

SMILES: Cc1cc(C#N)cc(C)c1Oc1nc(NC2CCN(Cc3ccc(S(N)(=O)=O)cc3)CC2)nc2c1COC2 [Compound B1, 4-((4-((4-(4-cyano-2,6-dimethylphenoxy)-5,7-dihydrofuro[3,4-d]pyrimidin-2-yl)amino)piperidin-1-yl)methyl)benzenesulfonamide]
- CC50 at 5 days ([2]; CC50): 22900 ± 2890 nM
- EC50 [1]: 38 ± 7.5 nM
- SI RES056 [1]: 604
- EC50 (WT HIV-1 strain (IIIB)): 2 ± 0.2 nM
- SI IIIB (WT HIV-1 strain (IIIB)): 11167

SMILES: Cc1cc(C#N)cc(C)c1Oc1nc(NC2CCN(Cc3ccc(S(C)(=O)=O)cc3)CC2)nc2c1COC2 [Compound B3, 3,5-dimethyl-4-((2-((1-(4-(methylsulfonyl)benzyl)piperidin-4-yl)amino)-5,7-dihydrofuro[3,4-d]pyrimidin-4-yl)oxy)benzonitrile]
- CC50 at 5 days ([2]; CC50): 27000 ± 3030 nM
- EC50 [1]: 41.6 ± 4.9 nM
- SI RES056 [1]: 648
- EC50 (WT HIV-1 strain (IIIB)): 1.8 nM
- SI IIIB (WT HIV-1 strain (IIIB)): 14414

SMILES: Cc1cc(C#N)cc(C)c1Oc1nc(NC2CCN(Cc3ccncc3)CC2)nc2c1COC2 [Compound B4, 3,5-dimethyl-4-((2-((1-(pyridin-4-ylmethyl)piperidin-4-yl)amino)-5,7-dihydrofuro[3,4-d]pyrimidin-4-yl)oxy)benzonitrile]
- CC50 at 5 days ([2]; CC50): 32500 ± 10000 nM
- EC50 [1]: 43.1 ± 1.2 nM
- SI RES056 [1]: 753
- EC50 (WT HIV-1 strain (IIIB)): 2.8 nM
- SI IIIB (WT HIV-1 strain (IIIB)): 11414

SMILES: Cc1cc(C#N)cc(C)c1Oc1nc(NC2CCN(Cc3ccc([N+](=O)[O-])cc3)CC2)nc2c1COC2 [Compound B5, 3,5-dimethyl-4-((2-((1-(4-nitrobenzyl)piperidin-4-yl)amino)-5,7-dihydrofuro[3,4-d]pyrimidin-4-yl)oxy)benzonitrile]
- CC50 at 5 days ([2]; CC50): ≥ 11100 nM
- EC50 [1]: 511 ± 165 nM
- SI RES056 [1]: ≥22
- SI IIIB (WT HIV-1 strain (IIIB)): ≥1497

SMILES: Cc1cc(C#N)cc(C)c1Oc1nc(NC2CCN(Cc3cccc(C(N)=O)c3)CC2)nc2c1COC2 [Compound B6, 3-((4-((4-(4-cyano-2,6-dimethylphenoxy)-5,7-dihydrofuro[3,4-d]pyrimidin-2-yl)amino)piperidin-1-yl)methyl)benzamide]
- CC50 at 5 days ([2]; CC50): > 250000 nM
- EC50 [1]: 1030 ± 51.1 nM
- EC50 (WT HIV-1 strain (IIIB)): 7.8 ± 3.4 nM

SMILES: Cc1cc(C#N)cc(C)c1Oc1nc(NC2CCN(Cc3ccc(C(N)=O)cc3)CC2)nc2c1CCC2 [Compound C2, 4-((4-((4-(4-cyano-2,6-dimethylphenoxy)-6,7-dihydro-5H-cyclopenta[d]pyrimidin-2-yl)amino)piperidin-1-yl)methyl)benzamide]
- CC50 at 5 days ([2]; CC50): > 251000 nM
- EC50 [1]: 173 ± 110 nM
- SI RES056 [1]: >1448
- SI IIIB (WT HIV-1 strain (IIIB)): >40984

SMILES: Cc1cc(C#N)cc(C)c1Oc1nc(NC2CCN(Cc3ccc(S(C)(=O)=O)cc3)CC2)nc2c1CCC2 [Compound C3, 3,5-dimethyl-4-((2-((1-(4-(methylsulfonyl)benzyl)piperidin-4-yl)amino)-6,7-dihydro-5H-cyclopenta[d]pyrimidin-4-yl)oxy)benzonitrile]
- CC50 at 5 days ([2]; CC50): > 274000 nM
- CC50 at 5 days [2, 3]: > 200000 nM
- EC50 [1]: 54.7 ± 6.22 nM
- SI RES056 [1]: >5020
- EC50 (WT HIV-1 strain (IIIB)): 1.8 ± 0.7 nM

SMILES: Cc1cc(C#N)cc(C)c1Oc1nc(NC2CCN(Cc3ccncc3)CC2)nc2c1CCC2 [Compound C4, 3,5-dimethyl-4-((2-((1-(pyridin-4-ylmethyl)piperidin-4-yl)amino)-6,7-dihydro-5H-cyclopenta[d]pyrimidin-4-yl)oxy)benzonitrile]
- CC50 at 5 days ([2]; CC50): 205000 ± 1130 nM
- CC50 at 5 days [2, 3]: > 200000 nM
- EC50 [1]: 26800 nM
- SI RES056 [1]: 9
- EC50 (WT HIV-1 strain (IIIB)): 2 ± 0.5 nM

SMILES: Cc1cc(C#N)cc(C)c1Oc1nc(NC2CCN(Cc3ccc([N+](=O)[O-])cc3)CC2)nc2c1CCC2 [Compound C5, 3,5-dimethyl-4-((2-((1-(4-nitrobenzyl)piperidin-4-yl)amino)-6,7-dihydro-5H-cyclopenta[d]pyrimidin-4-yl)oxy)benzonitrile]
- CC50 at 5 days ([2]; CC50): 7450 ± 930 nM
- EC50 [1]: 187 nM
- SI RES056 [1]: 40
- EC50 (WT HIV-1 strain (IIIB)): 4.9 ± 0.8 nM
- SI IIIB (WT HIV-1 strain (IIIB)): 1495

SMILES: Cc1cc(C#N)cc(C)c1Oc1nc(NC2CCN(Cc3cccc(C(N)=O)c3)CC2)nc2c1CCC2 [Compound C6, 3-((4-((4-(4-cyano-2,6-dimethylphenoxy)-6,7-dihydro-5H-cyclopenta[d]pyrimidin-2-yl)amino)piperidin-1-yl)methyl)benzamide]
- CC50 at 5 days ([2]; CC50): 8730 ± 3530 nM
- EC50 [1]: 941 ± 368 nM
- SI RES056 [1]: 9
- EC50 (WT HIV-1 strain (IIIB)): 14.5 ± 3.6 nM
- SI IIIB (WT HIV-1 strain (IIIB)): 599

SMILES: Cc1cc(C#N)cc(C)c1Oc1nc(Nc2ccc(C#N)cc2)nc(N)c1Br [ETR, Etravirine, reference compound]
- CC50 at 5 days ([2]; CC50): > 4590 nM

SMILES: Cc1ccnc2c1NC(=O)c1cccnc1N2C1CC1 [NVP, Nevirapine, reference compound]
- CC50 at 5 days ([2]; mock-infected MT-4 cells, concentration reducing viability of mock-infected MT-4 cell cultures by 50%, MTT method, read-out: CC50): > 9510 nM
- EC50 [1]: > 9510 nM
- EC50 (WT HIV-1 strain (IIIB)): 163 ± 41.2 nM
